The text below walks through data of ChEMBL document CHEMBL1201862, “PubChem BioAssay data set” (2004).

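The compound was tested at five concentrations on cells cultured in 96-well plates, with a 48-hour exposure period. GI50 = concentration required for 50% inhibition of growth.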 The source made the active and inactive calls. No stated cut-off is given here; in the data, active = GI50 up to about 1.1 µM and inactive = higher. Some results are limits rather than exact numbers.

Common to all, as to test: NCI tumour cell line growth inhibition, 48 h
The subject of assay [1] is 786-0.
In assay [2] the test system is A498.
Assay [3] deals with ACHN.
In assay [4] the test system is CAKI-1.
For assay [5], the system named is EKVX.
The subject of assay [6] is HCT-116.
The subject of assay [7] is LOX IMVI.
Assay [8] relates to M14.
For assay [9], the system named is MCF7.
The test system of assay [10] is MDA-MB-435.
Assay [11] deals with NCI-H522.
For assay [12], the system named is OVCAR-4.
Assay [13] relates to OVCAR-8.
For assay [14], the system named is SK-MEL-28.
Assay [15] has as its system SK-MEL-2.
The test system of assay [16] is SR.
The subject of assay [17] is T47D.
Assay [18] deals with UO-31.
Assay [19] relates to MOLT-4.
Assay [20] has as its system SF-539.

As for `O=C(O)CSc1ccc([N+](=O)[O-])cc1[N+](=O)[O-]`, the GI50 in assay [1], in [2], in [3], in assay [4], in assay [5] and in assay [6] was > 100 µM (inactive) throughout. For the same molecule, the GI50 in assay [7], in assay [8], in [9], in assay [10], in assay [11] and in [12] was > 100 µM (inactive) each time. For the same molecule, the GI50 in [13], in assay [14], in [15], in assay [16], in assay [17] and in [18] was > 100 µM (inactive) throughout.

Consider `CC(=O)NC1(NC(C)=O)C2CC(C1Cc1ccccc1)C(C)(C)C2C` (stereo unspecified), for which the GI50 in assay [1], in assay [2], in assay [3], in [4], in assay [5] and in assay [6] was > 100 µM (inactive) each time. For the same molecule, the GI50 in assay [8], in assay [9], in assay [10], in assay [19], in assay [11] and in [12] was > 100 µM (inactive) in each case. The GI50 in assay [13], in assay [20], in assay [14], in [16], in assay [17] and in [18] was > 100 µM (inactive) in each case.

As to `Cc1cc(C)n(C(=CC(=O)C(Cl)Cl)n2nc(C)cc2C)n1`, the GI50 was 2.07 µM (inactive) in assay [1]; 53.1 µM (inactive) in assay [2]; 6.05 µM (inactive) in assay [3]; 4.94 µM (inactive) in assay [4]; 1.76 µM (inactive) in assay [6]; 1.57 µM (inactive) in assay [7]. Also, the GI50 in assay [8] was 2.83 µM (inactive); in assay [9], 3.94 µM (inactive); in assay [10], 2.52 µM (inactive); in [19], 0.151 µM (active); in [11], 1.79 µM (inactive); in [12], > 100 µM (inactive). Besides, the GI50 in [13] is 2.25 µM (inactive); in assay [20] it was 3.43 µM (inactive); in [15] it was 3.69 µM (inactive); in assay [16] it was 1.61 µM (inactive); in assay [17], 4.06 µM (inactive); in assay [18] it was 4.71 µM (inactive).

As to `CCn1c(=O)c2c3ccc(O)cc3[nH]c2c2ccc(O)cc21`, the GI50 in assay [2] is > 100 µM (inactive); in assay [3] it was 96.4 µM (inactive); in assay [4], > 100 µM (inactive); in assay [5], > 100 µM (inactive); in assay [6], 45.4 µM (inactive); in assay [8] it was > 100 µM (inactive). Besides, the GI50 was 50.7 µM (inactive) in assay [9]; 61 µM (inactive) in assay [10]; 39.1 µM (inactive) in assay [19]; 93.3 µM (inactive) in assay [11]; > 100 µM (inactive) in assay [12]; > 100 µM (inactive) in assay [13]. For the same molecule, the GI50 in [20] is > 100 µM (inactive); in [14], > 100 µM (inactive); in [16], 55.6 µM (inactive); in assay [17], 51.2 µM (inactive); in assay [18], > 100 µM (inactive).

As for `O=C(O)c1cc([N+](=O)[O-])cc2c(=O)c3cnccc3[nH]c12`, the GI50 in [2], in assay [4], in assay [6], in assay [8], in assay [9] and in assay [10] was > 100 µM (inactive) throughout. Also, the GI50 in assay [19] is 54.8 µM (inactive); in assay [11], > 100 µM (inactive); in [12] it was > 100 µM (inactive); in [13] it was > 100 µM (inactive); in assay [14] it was > 100 µM (inactive); in assay [15], > 100 µM (inactive). The GI50 in assay [16], in assay [17] and in assay [18] was > 100 µM (inactive) throughout.

On to `CC1C2CC(C(S(=O)(=O)N3CCOCC3)/C2=N\O)C1(C)C` (stereo unspecified), for which the GI50 in assay [1], in assay [2], in assay [3], in assay [4], in assay [5] and in assay [6] was > 100 µM (inactive) in each case. Also, the GI50 in [7], in assay [8], in assay [9], in assay [10], in [19] and in assay [11] was > 100 µM (inactive) each time. Also, the GI50 in assay [12], in [13], in [20], in assay [14], in assay [16] and in assay [17] was > 100 µM (inactive) in each case. The GI50 in assay [18] was > 100 µM (inactive).

Turning to `C=CCNC(=O)CN(CC(=O)O)C1CCCCC1N(CC(=O)O)CC(=O)O` (stereo unspecified), the GI50 in assay [1], in assay [2], in assay [3], in [4], in assay [6] and in [7] was > 100 µM (inactive) in each case. In addition, the GI50 in assay [9], in assay [10], in assay [19], in assay [11], in assay [12] and in assay [13] was > 100 µM (inactive) each time. In addition, the GI50 in assay [20], in assay [14], in assay [16], in assay [17] and in [18] was > 100 µM (inactive) in each case.

Consider `C[C@H]1C[C@H]2[C@@H]3CCC4=CC(=O)C=C[C@]4(C)C3=CC[C@]2(C)[C@@]1(O)C(=O)CO`, for which the GI50 in assay [1] is > 100 µM (inactive); in assay [2], 23.4 µM (inactive); in assay [3], > 100 µM (inactive); in assay [4], > 100 µM (inactive); in assay [5], 50.6 µM (inactive); in [6] it was > 100 µM (inactive). Moreover, the GI50 was > 100 µM (inactive) in [7]; > 100 µM (inactive) in assay [8]; > 100 µM (inactive) in [9]; > 100 µM (inactive) in assay [10]; 64 µM (inactive) in [19]; 68.2 µM (inactive) in [11]. Moreover, the GI50 in [12] is > 100 µM (inactive); in assay [13], > 100 µM (inactive); in assay [14], > 100 µM (inactive); in assay [15] it was > 100 µM (inactive); in [16] it was 37.7 µM (inactive); in [17] it was 69.8 µM (inactive). Further, in [18], the GI50 was > 100 µM (inactive).

As for `O=c1c(C(c2cccc(C(c3c(O)oc4ccccc4c3=O)c3c(O)oc4ccccc4c3=O)c2)c2c(O)oc3ccccc3c2=O)c(O)oc2ccccc12`, the GI50 in assay [1] is 17.7 µM (inactive); in [2], > 100 µM (inactive); in assay [3], 36.6 µM (inactive); in assay [4] it was 16.9 µM (inactive); in assay [5] it was 67.3 µM (inactive); in [6], 25.1 µM (inactive). Besides, the GI50 in assay [7] was 18.7 µM (inactive); in [8], > 100 µM (inactive); in assay [9] it was 13.6 µM (inactive); in assay [10], 86.9 µM (inactive); in [19] it was 29.2 µM (inactive); in assay [11], 14.5 µM (inactive). Also, the GI50 in assay [13] is 21.1 µM (inactive); in assay [20], 19.8 µM (inactive); in [14], > 100 µM (inactive); in assay [15], > 100 µM (inactive); in [16], 28.4 µM (inactive); in assay [17], 24.3 µM (inactive).

With `NC(=O)C1=C(c2ccccc2)c2ccccc2C1=O`, the GI50 in assay [1] is 15.7 µM (inactive); in [2], 28 µM (inactive); in [3] it was 11.4 µM (inactive); in [4], 16 µM (inactive); in [5] it was 18.8 µM (inactive); in assay [6] it was 16.9 µM (inactive). For the same molecule, the GI50 in assay [7] is 7.98 µM (inactive); in [8] it was 19.1 µM (inactive); in [9] it was 16.1 µM (inactive); in assay [10], 26.1 µM (inactive); in [19], 3.37 µM (inactive); in assay [11], 18.6 µM (inactive). The GI50 is 18.5 µM (inactive) in [12]; 15.6 µM (inactive) in assay [13]; 20.1 µM (inactive) in [14]; 19.9 µM (inactive) in assay [15]; 4.78 µM (inactive) in assay [16]; 19.1 µM (inactive) in assay [17]. Further, the GI50 in [18] was 18.8 µM (inactive).

Take `O=C1CC(c2ccc(Cl)cc2)Oc2ccccc21` (stereo unspecified): the GI50 in assay [1] was 16.3 µM (inactive); in assay [2] it was 26.2 µM (inactive); in [3], 36.1 µM (inactive); in assay [4], 26.3 µM (inactive); in assay [5], 18.6 µM (inactive); in assay [6] it was 37.3 µM (inactive). Further, the GI50 was 29.8 µM (inactive) in assay [7]; 17.1 µM (inactive) in [8]; 3.83 µM (inactive) in assay [9]; 36.8 µM (inactive) in [10]; 43.4 µM (inactive) in [12]; 37.2 µM (inactive) in [13]. The GI50 in assay [20] is 13.4 µM (inactive); in assay [14], 85.9 µM (inactive); in assay [15] it was 18.8 µM (inactive); in assay [16], 8.36 µM (inactive); in [17] it was 32 µM (inactive); in assay [18], 18.1 µM (inactive).
